Assays:
[1] = Atmospheric lifetime from rate of reaction with hydroxyl radicals; type: physicochemical; settings: gas phase, relative to reference compounds such as chloromethane and ethane, FTIR
Description: Atmospheric lifetime: The atmospheric lifetime of Example 1 was determined from the rate of reaction with hydroxyl radicals. The pseudo-first order rate for the reaction of the gaseous hydrobromofluoroolefin with hydroxyl radical was measured in a series of experiments relative to reference compounds such as chloromethane and ethane. The measurements were performed in a 5.7 L, heated FTIR gas cell equipped with a polished semiconductor-grade quartz window. An Oriel Instruments UV Lamp, Model 66921 equipped with a 480 W mercury-xenon bulb was used to generate hydroxyl radicals by photolyzing ozone in the presence of water vapor. The concentrations of the hydrobromofluoroolefin and the reference compound were measured as a function of reaction time using an I-Series FTIR from Midac Corporation, Westfield, Mass., US. The atmospheric lifetime was calculated from the reaction rates for the hydrobromofluoroolefin relative to the reference compounds and the reported lifetime of the reference compounds as shown below:
[formula] where τx is the atmospheric lifetime of hydrobromofluoroolefin, τr is the atmospheric lifetime of the reference compound, and kx and kr are the rate constants for the reaction of hydroxyl radical with hydrobromofluoroolefin and the reference compound, respectively. Sample Preparation

[2] = Largest Soluble Hydrocarbon (LSH) test; type: physicochemical; settings: compound:hydrocarbon about 1:1 to 1:2 by weight
Description: Largest Soluble Hydrocarbon (LSH): The LSH of each hydrofluoroolefin compound was determined by mixing the compound with hydrocarbons of varying molecular weight (CnH2n+2, where n=9 to 24) in a hydrofluoroolefin:hydrocarbon ratio of about 1:1 to 1:2 by weight at room temperature (25° C.) and at 50° C. […] A larger value of n is interpreted herein to indicate a greater ability of the hydrofluoroolefin to clean hydrocarbons.
The results presented in Table 2 indicate that the hydrofluoroolefins of the present invention are highly suitable fluids for cleaning applications.

[3] = 25° C., longest hydrocarbon compatible without haze
[4] = 50° C., largest hydrocarbon used C-23

COC(=C(Cl)C(F)(F)F)C(F)(F)F [Example 1, 2-Chloro-1,1,1,4,4,4-hexafluoro-3-methoxybut-2-ene]
atmospheric lifetime [1]: 0.04 years
LSH (n in CnH2n+2) [2, 3]: 19
LSH (n in CnH2n+2) [2, 4]: >23

COC1=C(Cl)C(F)(F)C(F)(F)C1(F)F [Example 4, 1-Chloro-3,3,4,4,5,5-hexafluoro-2-methoxycyclopent-1-ene]
LSH (n in CnH2n+2) [2, 3]: 19
LSH (n in CnH2n+2) [2, 4]: >23
